Test results: patent publication US20130023553A1, “PEGYLATED OPIOIDS WITH LOW POTENTIAL FOR ABUSE AND SIDE EFFECTS” (Nektar Therapeutics, priority 2010, published 2013)
Read-outs that look alike come from different tables or passages of the source.

Key:
[1] = Pharmacokinetics following intravenous (IV) dosing; type: in vivo, Sprague-Dawley rats; settings: male, Sprague-Dawley, rat, plasma; for Cmax: read-out: Cmax; for Vd: read-out: Vss
Source text: (§1) There were 3 rats/group. All animals were food fasted overnight. […] The predose sample was collected from the JVC.
(§2) Following the last collection point, the animals were euthanized.

[2] = Pharmacokinetics following oral (PO) dosing; type: in vivo, Sprague-Dawley rats; settings: male, Sprague-Dawley, rat, plasma; for Cmax: read-out: Cmax; for Tmax: read-out: Tmax (converted)
Source text: as §1, §2

[3] = target: T1, human kappa opioid receptor (Homo sapiens, UniProt P41145); assay: biochemical; type: binding
T1 construct: expressed in transfected cells; host or cells: CHO cells
Protocol: (§3) Radioligand displacement was measured using scintillation proximity assays (SPA).
(§4) Briefly, serial dilutions of the test compounds were placed in a 96-well plate to which were added SPA beads, membrane and radioligand. The assay conditions for each opioid receptor subtype are described in Table 10 below. The plates were incubated for 8 hours-overnight at room temperature, spun at 1000 rpm to pellet the SPA beads, and radioactivity was measured using the TopCount® microplate Scintillation counter. Specific binding at each concentration of test compound was calculated by subtracting the non-specific binding measured in the presence of excess cold ligand. IC50 values were obtained by non-linear regression of specific binding versus concentration curves and Ki values were calculated using Kd values that were experimentally pre-determined for each lot of membrane preparations.

human mu opioid receptor [4] = target: T2, human mu opioid receptor (Homo sapiens, UniProt P35372); assay: biochemical; type: binding; settings: CHO-K1 membranes, [3H]DAMGO 6 nM; read-out: Ki, Mu opioid receptor
T2 construct: expressed in transfected cells; host or cells: CHO cells
Protocol: as §3, §4

[5] = target: T1, human kappa opioid receptor; assay: cell-based; settings: maximal response at the highest tested concentration; read-out: % max effect, kappa opioid receptor
Protocol: (§5) Studies were conducted in CHO cells heterologously expressing the cloned human mu, kappa or delta opioid receptors. cAMP was measured using a cAMP HiRange homogenous time-resolved fluorescence assay (HTRF Assay), that is based on a competitive immunoassay principle (Cisbio, Cat.#62AM6PEC).
(§6) Briefly, suspensions of cells expressing either the mu, kappa or delta opioid receptors were prepared in buffer containing 0.5 mM isobutyl-methyl xanthine (IBMX). […] EC50 values were calculated for each compound from a sigmoidal dose-response plot of concentrations versus maximum response. To determine if the compounds behaved as full or partial agonists in the system, the maximal response at the highest tested concentrations of compounds were compared to that produced by a known full agonist.

human mu opioid receptor [6] = target: T2, human mu opioid receptor; assay: cell-based; settings: for Emax: maximal response at the highest tested concentration, read-out: % max effect, mu opioid receptor; for EC50: read-out: EC50, mu opioid receptor
Protocol: as §5, §6

squirrel monkeys = assay: Monkey self-administration model of addictive potential; settings: 0.03 mg/kg/injection
Source text: Dose-related effects of the test articles were examined, using two or more doses of each drug in 3-4 subjects in a double alternation schedule in which each unit dose (or vehicle) was used in two consecutive sessions before a change in unit dose.
Addictive potential of opioid compounds and opioid conjugates of the invention may be assessed through the use of squirrel monkey models as known in the art.
Under the double alternation schedule, each unit dose (or vehicle) was available for intravenous self-administration for two consecutive sessions before the unit dose was changed. In this way, it was possible to establish the function relating unit dose of intravenous drug to (i) number of injections per session, and/or (ii) the percentage of total responses that occur on the lever leading to self-administration (injection-lever responding, % ILR). Unit doses of drugs ranged from 0.01 to 3.2 mg/kg/injection.

Male CD-1 mice = assay: Assessment of CNS side effects in mice (Straub tail, muscle rigidity, pinna reflex)
Source text: The objective of this study was to provide an approximation of the side effect profile of various oligomeric conjugates for comparison to the parent compounds by measuring various gross behavioral and physiological signs following administration of compound.
Additional evaluations included muscle rigidity and pinna reflex.
Male CD-1 mice from Charles River Laboratories, Raleigh, N.C., weighing from 16-18 grams were maintained on a regular light/dark cycle (lights on 0600-1800) with ad libitum food and water for 1 week before commencement of testing. N=2 per treatment condition, i.e., separate mice for each dose of each test article, injection was performed via a 25-gauge ⅝-inch needle on a 1-mL tuberculin syringe for the s.c. route and a 22-gauge stainless steel mouse feeding tube for the p.o. route (Becton, Dickinson & Co., Franklin Lakes, N.J.). Each treatment condition was divided about evenly between two observers. […] Test article was administered (s.c. or p.o., and the mouse was placed immediately in the observation chamber). One-half, 1, 2, and 3 hours later, the animal was observed undisturbed for gross signs such as locomotor ataxia, tremor, hyperactivity, hypoactivity, convulsions, hindlimb splay, and Straub tail, and then removed and assessed for muscle tone (normal, rigid, flaccid), pinna reflex (presence or absence), righting reflex (intact or lost), and placing (whether or not the forepaws are extended when the mouse is placed near a surface).
Each of the tables show the number of animals responding at each dose, where N=2. […] A bolded value indicates the lowest dose at which a response was detected.

[7] = hydroxycodone series, 1 mg/kg IV, Mean ± SD
[8] = hydroxycodone series, 5.0 mg/kg oral, Mean ± SD

T2 sequence (P35372 whole entry): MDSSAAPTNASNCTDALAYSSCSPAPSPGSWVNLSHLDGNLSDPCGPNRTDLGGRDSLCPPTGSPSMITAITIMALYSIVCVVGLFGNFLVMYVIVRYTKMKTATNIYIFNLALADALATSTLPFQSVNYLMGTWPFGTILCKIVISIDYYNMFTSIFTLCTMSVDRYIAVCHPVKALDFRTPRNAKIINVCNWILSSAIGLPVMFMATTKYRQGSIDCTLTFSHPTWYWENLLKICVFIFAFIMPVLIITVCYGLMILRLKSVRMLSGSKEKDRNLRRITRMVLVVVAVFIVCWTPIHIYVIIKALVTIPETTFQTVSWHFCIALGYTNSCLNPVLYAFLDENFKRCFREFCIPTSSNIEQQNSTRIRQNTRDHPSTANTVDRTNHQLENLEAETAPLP
T1 sequence (P41145 whole entry): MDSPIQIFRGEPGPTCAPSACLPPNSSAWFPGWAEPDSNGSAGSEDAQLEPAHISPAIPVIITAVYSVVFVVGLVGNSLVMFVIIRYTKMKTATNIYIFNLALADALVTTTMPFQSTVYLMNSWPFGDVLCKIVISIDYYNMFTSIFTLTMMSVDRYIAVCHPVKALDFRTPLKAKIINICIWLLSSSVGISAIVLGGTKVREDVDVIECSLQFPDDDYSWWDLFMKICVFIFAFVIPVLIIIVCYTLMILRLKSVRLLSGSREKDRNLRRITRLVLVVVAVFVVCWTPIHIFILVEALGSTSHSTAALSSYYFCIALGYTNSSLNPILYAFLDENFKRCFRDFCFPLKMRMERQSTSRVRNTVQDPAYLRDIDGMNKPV

COCCOCCOCCOCCOCCOC1C=CC2C3Cc4ccc(OC)c5c4C2(CCN3C)C1O5 (stereo not drawn) [α-6-mPEG5-O-codeine]
AUC ([1]; iv, 1 mg/kg): 192 ng·h/mL
AUC(0-inf) ([1]; iv, 1 mg/kg): 195 ng·h/mL
MRT last ([1]; iv, 1 mg/kg): 0.53 h
clearance ([1]; iv, 1 mg/kg): 86.2 ± 7.04 mL/min/kg
Cmax ([1]; iv, 1 mg/kg): 533 ± 38.9 ng/mL
half-life ([1]; iv, 1 mg/kg, read-out: T1/2(2)): 0.712 ± 0.0593 h
Vd ([1]; iv, 1 mg/kg): 2.95 ± 0.157 L/kg
AUC ([2]; po, 5 mg/kg): 91.8 ng·h/mL
AUC(0-inf) ([2]; po, 5 mg/kg): 98.2 ng·h/mL
MRT last ([2]; po, 5 mg/kg): 1.8 h
bioavailability ([2]; po, 5 mg/kg): 10.1%
Cmax ([2]; po, 5 mg/kg): 48.7 ± 10.8 ng/mL
half-life ([2]; po, 5 mg/kg, read-out: T1/2(2)): 2.08 ± 1.06 h
Tmax ([2]; po, 5 mg/kg): 0.25 h
Ki [3]: 59.1 µM
Ki (human mu opioid receptor [4]): 2.43 µM
Emax [5]: 60%
Emax (human mu opioid receptor [6]): 95%

COCCOCCOCCOCCOCCOCCOCCOC1CCC2(O)C3Cc4ccc(OC)c5c4C2(CCN3C)C1O5 (stereo not drawn) [α-6-mPEG7-O-hydroxycodone, α-6-mPEG7-O-oxycodone]
injection lever responses (% ILR) (squirrel monkeys): only food lever responses
AUC [1, 7]: 238 ng·h/mL
AUC(0-inf) [1, 7]: 263 ng·h/mL
MRT last [1, 7]: 0.905 h
clearance [1, 7]: 63.3 ± 2.99 mL/min/kg
Cmax [1, 7]: 489 ± 26.5 ng/mL
half-life ([1]; hydroxycodone series, 1 mg/kg IV, Mean ± SD, read-out: T1/2(z)): 1.45 ± 0.0542 h
Vd [1, 7]: 5.31 ± 0.139 L/kg
bioavailability ([2]; po, 5 mg/kg): 28.1%
AUC [2, 8]: 340 ng·h/mL
MRT last [2, 8]: 2.97 h
AUC(0-inf) ([2]; hydroxycodone series, 5.0 mg/kg oral, Mean ± SD, * n = 2): 370 ng·h/mL
half-life ([2]; hydroxycodone series, 5.0 mg/kg oral, Mean ± SD, * n = 2, read-out: T1/2(z)): 1.92 ± 0.487 h
Cmax [2, 8]: 114 ± 38 ng/mL
Tmax ([2]; hydroxycodone series, 5.0 mg/kg oral, median value): 2 h
Ki (human mu opioid receptor [4]): 1.61 µM
Emax (human mu opioid receptor [6]): 101%
EC50 (human mu opioid receptor [6]): 7.45 µM
Straub Tail, fold difference relative to parent compound (Male CD-1 mice; PO, 1/2 responding): 30 fold
Loss Pinna, fold difference relative to parent compound (Male CD-1 mice; PO, 2/2 responding): 30 fold
Muscle Rigidity, fold difference relative to parent compound (Male CD-1 mice; PO, 2/2 responding): 30 fold
Straub Tail, fold difference relative to parent compound (Male CD-1 mice; PO, 2/2 responding): 100 fold
Muscle Rigidity, fold difference relative to parent compound (Male CD-1 mice; SC, 1/2 responding): >300 fold
Straub Tail, fold difference relative to parent compound (Male CD-1 mice; SC, 1/2 responding): 10 fold
Loss Pinna, fold difference relative to parent compound (Male CD-1 mice; SC, 2/2 responding): 100 fold
Muscle Rigidity, fold difference relative to parent compound (Male CD-1 mice; SC, 2/2 responding): 30 fold
Straub Tail, fold difference (reduction in CNS activity) relative to parent compound (Male CD-1 mice; SC, 2/2 responding): 10 fold

COCCOCCOCCOCCOCCOCCOC1C=CC2C3Cc4ccc(OC)c5c4C2(CCN3C)C1O5 (stereo not drawn) [α-6-mPEG6-O-codeine]
Ki [3]: > 160 µM
Ki (human mu opioid receptor [4]): 14.2 µM
Emax [5]: 21%
Emax (human mu opioid receptor [6]): 80%
EC50 (human mu opioid receptor [6]): 97.4 µM

COCCOC1C=CC2C3Cc4ccc(OC)c5c4C2(CCN3C)C1O5 (stereo not drawn) [α-6-mPEG1-O-codeine]
AUC ([1]; iv, 1 mg/kg): 258 ng·h/mL
AUC(0-inf) ([1]; iv, 1 mg/kg): 262 ng·h/mL
MRT last ([1]; iv, 1 mg/kg): 0.537 h
clearance ([1]; iv, 1 mg/kg): 64.6 ± 8.75 mL/min/kg
Cmax ([1]; iv, 1 mg/kg): 723 ± 31.2 ng/mL
half-life ([1]; iv, 1 mg/kg, read-out: T1/2(2)): 0.702 ± 0.0807 h
Vd ([1]; iv, 1 mg/kg): 2.22 ± 0.899 L/kg
Ki [3]: 54.7 µM
Ki (human mu opioid receptor [4]): 1.82 µM
Emax [5]: 51%
Emax (human mu opioid receptor [6]): 80%
EC50 (human mu opioid receptor [6]): 8.57 µM
